What is called MIC is the lowest concentration found to suppress growth. The term IC50 denotes the concentration that gives 50% inhibition. The term MBC denotes the lowest tested concentration that kills the bacteria rather than only halting them. The low end stands for greater bactericidal potency, the high end for weaker bactericidal potency. As usually defined, the CC50 is the concentration giving 50% cytotoxicity. A low value points to harm at low concentration.

Converted amounts (≈) assume the structure as drawn. “Also recorded” adds a separate entry of the source. Where two headings read alike, the source gives them in different places.

This is an account of results in PMC4026384, “Antibacterial Activity of THAM Trisphenylguanide against Methicillin-Resistant Staphylococcus aureus” (PLoS ONE, 2014).

One series deals with all of the pathogens. As to the kind of experiment: MIC against all of the pathogens (LB). It is filed as cell-based. Particulars: complex medium (LB), actively growing bacteria. On the procedure:
(§1) Minimum inhibitory concentration (MIC) values were determined for those compounds showing the most antibacterial activity in the bacterial viability assays (see Supplemental Materials) against each of the strains of bacteria using a microdilution method in 96 well plates with LB media according to guidelines published by the British Society for Antimicrobial Chemotherapy. Minimum bactericidal concentrations (MBC) were determined by plating 10 µL and 100 µL from each well showing no signs of growth after overnight incubation of the MIC plates and determining the minimum concentration showing a 3-log reduction of viable bacteria. MIC and MBC were also determined in cation-adjusted Mueller-Hinton broth (Hardy Diagnostics, Santa Maria, CA) for some compounds and strains.

For series [1], the system named is A. baumannii ATCC BAA1605. As to the kind of experiment: Bacterial viability assay. The settings on record: Acinetobacter baumannii, ATCCBAA1605, 1 h, one hour in PBS, CFU, ± SEM. It is filed as cell-based, Acinetobacter baumannii. On the procedure:
(§2) Supplementary file pone.0097742.s003.doc: Table S1 Bacterial viability assays. Bacteria were grown at 37°C to mid-log phase (OD600 ∼0.4). The bacteria were diluted to approximately 10^4 to 10^5 colony forming units (CFU) per milliliter and added to a solution of phosphate buffered saline (PBS, 16 mM phosphate, 0.14 M NaCl, pH 7.2) containing the compound at varied concentrations. Samples were incubated at 37°C for one hour and then plated on Luria Bertani (LB) agar at appropriate dilutions in PBS. The plates were incubated overnight at 37°C and colonies enumerated the following day. IC50s were calculated from graphs of CFU as a function of compound concentration. Chlorhexidine was used as a positive control. […] (DOC) Click here for additional data file.
(§3) Bacterial viability assays. Bacteria were grown at 37°C to mid-log phase (OD600 ~0.4). The bacteria were diluted to approximately 10^4 to 10^5 colony forming units (CFU) per milliliter and added to a solution of phosphate buffered saline (PBS, 16 mM phosphate, 0.14 M NaCl, pH 7.2) containing the compound at varied concentrations. Samples were incubated at 37°C for one hour and then plated on Luria Bertani (LB) agar at appropriate dilutions in PBS. The plates were incubated overnight at 37°C and colonies enumerated the following day. IC50s were calculated from graphs of CFU as a function of compound concentration. Chlorhexidine was used as a positive control.

A further series deals with A. baumannii ATCC 19606. As to the kind of experiment: Bacterial viability assay. Particulars: Acinetobacter baumannii, ATCC19606, 1 h, one hour in PBS, CFU, ± SEM. It is filed as cell-based, Acinetobacter baumannii. On the procedure:
as §2, §3

The test system of another series is MRSA. As to the kind of experiment: Cytoplasmic leakage & bacteriolysis assay. Particulars: for change in A260 of culture supernatant (cytoplasmic leakage): 4×MIC (8 mg/L), within the first 30 minutes, versus untreated controls; for number of viable cells (CFUs) during the leakage assay: over the 3 hour period. Type of series: cell-based, Staphylococcus aureus. On the procedure: Bacteria were cultured to mid-log phase (OD600 ∼0.4) in LB media with shaking. Bacteria were then harvested and resuspended in PBS to a concentration of ∼10^8 CFU/mL. […] Bacteria were monitored over time for cytoplasmic leakage via A260 measurements and for cell viability. For A260 readings, sample aliquots were centrifuged for 5 min at 10,000×g at room temperature to remove cellular debris. Viability was monitored by determining the CFU/mL during the first 3 hours post treatment as described above for the kill curve assays.

Series [2] deals with Staphylococcus aureus RN4220. As to the kind of experiment: Minimum bactericidal concentration. It is filed as cell-based. Particulars: S. aureus RN4220; MHB; median; 3-log reduction of viable bacteria. On the procedure: as §1
Series [3] concerns Escherichia coli (strain K91). As to the kind of experiment: Minimum bactericidal concentration. The settings on record: E. coli K91; MHB; median; 3-log reduction of viable bacteria. Type of series: cell-based. The method, then: as §1
In series [4] the test system is Enterococcus faecalis ATCC V583. As to the kind of experiment: Minimum inhibitory concentration (microdilution). Particulars: Enterococcus faecalis, ATCCV583; E. faecalis V583; LB media; median of at least 3 determinations; read-out: MIC. It is filed as cell-based. On the procedure:
as §1
Background: Broth dilution looks for growth in wells or tubes with falling amounts of substance.

Series [5] concerns Enterococcus faecalis MSU#10. As to the kind of experiment: Minimum inhibitory concentration (microdilution). It is filed as cell-based. Particulars: Enterococcus faecalis; E. faecalis MSU#10; LB media; median of at least 3 determinations; read-out: MIC. The method, then:
as §1

A further series has as its system MRSA USA300. As to the kind of experiment: Bacterial viability assay. It is filed as cell-based, Staphylococcus aureus. Particulars: Staphylococcus aureus, 1 h, one hour in PBS, CFU, ± SEM. The method, then: as §2, §3
A short description of series [6]: Cell toxicity assay (MTS). Type of series: cell-based, human. Particulars: human, MTS assay, concentration which killed 50% of the cells. On the procedure: The HaCaT cell line was grown in Epilife medium (MEPI500Ca) with human keratinocyte growth supplement (Invitrogen, San Diego, CA). Both types of cells were harvested using Tryspin/EDTA and diluted to 1×10^5 cells per well in a 96-well plate. Ten concentrations covering five orders of magnitude were tested with six replicates per concentration. […] MTS/PMS solution (Promega, Madison, WI) was added to the wells and absorbance was measured at 490 nm two to four hours later. Data was analyzed using GraphPad Prism version 5.0 (GraphPad Software, La Jolla, CA) using a variable slope inhibition dose response curve.
In general terms: Tetrazolium assays rely on reduction of a dye to a coloured formazan, in cell work by metabolically active cells.

The test system of a further series is E. faecalis MSU#10. As to the kind of experiment: Bacterial viability assay. Type of series: cell-based, Enterococcus faecalis. The settings on record: Enterococcus faecalis, 1 h. On the procedure: as §2, §3
A further series has as its system E. faecalis V583. As to the kind of experiment: Bacterial viability assay. It is filed as cell-based, Enterococcus faecalis. Particulars: Enterococcus faecalis, 1 h, one hour in PBS, CFU, ± SEM. The method, then: as §2, §3
The test system of a further series is Acanthamoeba castellanii. As to the kind of experiment: Toxicity against eukaryotic pathogen. Type of series: cell-based. Particulars: data not shown.
The next series relates to Balb/c mice. As to the kind of experiment: In vivo toxicity study (serum chemistry and enzyme levels). Also on record: species or system mouse. The settings on record: i.p. 0.1 ml of 10, 50, 100 µM, blood two hours post injection, versus mock-treated control. On the procedure:
THAM-3ΦG was chosen for the in vivo challenge experiments, because it had the best combination of antibacterial activity and low toxicity (Tables 1–3). In vivo toxicity studies were carried out prior to the start of experiments in mice challenged with MRSA. Groups of three Balb/c mice each were injected i.p. with 0.1 ml of 0, 10, 50, and 100 µM THAM-3ФG in PBS. The highest in vivo dose represented 0.36 mg/kg. Blood was drawn from the mice at two hours post injection and submitted for a standard panel of serum chemistry and enzyme levels. The chemistry and enzyme levels were not elevated for any of the concentrations tested compared to the mock-treated control group (data not shown).

Setting [7] is: MDA-MB-231 breast cancer cells (ATCC HTB-26), MDA-231.

With `[H]/N=C(\N/C(=N/[H])NCCCCCCNC(=N)NC(=N)Nc1ccc(Cl)cc1)Nc1ccc(Cl)cc1` [Chlorhexidine, chlorhexidine, reference compound], the MIC was not above 16 µg/mL in the series with all of the pathogens, 6 µg/mL (≈ 11.9 µM) in [4] and 4 µg/mL (≈ 7.91 µM) in series [5]. Besides, the IC50 in [1] is 780 ± 310 nM; in the series on A. baumannii ATCC 19606, 1300 ± 200 nM; in the series on MRSA USA300 it was 13 µM; in the series with E. faecalis MSU#10, 14 ± 6 µM; in the series on E. faecalis V583, 16 ± 6 µM; in the series on Acanthamoeba castellanii, approximately 10 µM. In addition, the “change in A260 of culture supernatant (cytoplasmic leakage)” value in the series on MRSA is on record as “immediate increase in A260”; in the series with MRSA (listed as chlorhexidine), “significant increase in A260”. In addition, the results for the “number of viable cells (CFUs) during the leakage assay” value with MRSA and in the series on MRSA (listed as chlorhexidine) were “no significant reductions in CFUs” and “no significant reduction in CFUs”, respectively. Further, the figures for the MBC in [2] and in series [3] were 0.89 µg/mL (≈ 1.76 µM) and 0.44 µg/mL (≈ 0.87 µM), respectively. Besides, the CC50 in series [6] (HaCaT keratinocytes) stood at 1.9 µg/mL (≈ 3.76 µM); in [6] (setting [7]), 2.6 µg/mL (≈ 5.14 µM).
`N=C(NCCCCCCNc1nc(NCCCCCCNC(=N)Nc2ccccc2)nc(NCCCCCCNC(=N)Nc2ccccc2)n1)Nc1ccccc1` [THAM-3ΦG, Trishexylaminomelamine trisphenylguanide]: the IC50 in series [1] was found to be 4300 ± 1000 nM; with A. baumannii ATCC 19606, 860 ± 250 nM; in the series with MRSA USA300, 3.9 ± 0.5 µM; with E. faecalis MSU#10 (E. faecalis MSU#10, one hour in PBS, CFU, ± SEM, read-out: IC50), 2.8 ± 0.6 µM; in the series on E. faecalis V583, 65 ± 1 µM. The “change in A260 of culture supernatant (cytoplasmic leakage)” value in the series with MRSA (listed as THAM-3ФG) is “significant increase in A260; also recorded: immediate increase in A260”. In the series on MRSA (listed as THAM-3ФG), the “number of viable cells (CFUs) during the leakage assay” value is given as “no significant reductions in CFUs”. The MBC was 2 µg/mL (≈ 2.57 µM) in [2] and 16 µg/mL (≈ 20.6 µM) in series [3]. For the same molecule, the “serum chemistry and enzyme levels” value with Balb/c mice is listed as “not elevated”. The MIC in series [4] amounted to 256 µg/mL (≈ 329 µM); in series [5], 32 µg/mL (≈ 41.1 µM). Besides, the results for the CC50 in series [6] (HaCaT keratinocytes) and in series [6] (setting [7]) were 14 µg/mL (≈ 18 µM) and 7.6 µg/mL (≈ 9.77 µM), respectively.
